Experimental data from patent US8952024B2, “Herbicidal pyrimidone derivatives” (E I du Pont de Nemours and Company, priority 2009, dated 2015).

Columns and labels:
Assay type in all cases: in vivo
[1] = test system: barnyardgrass (Echinochloa crus-galli); assay: Test A pre-/postemergence plant response
How it was run: (§1)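 Plants grown from seed in a loam soil and sand mix received test compounds both as a preemergence soil spray and, at the same time, as a postemergence spray at the one- to two-leaf stage. Injury was judged visually against untreated controls roughly ten days later, 0 meaning no effect and 100 complete control.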

corn (Zea mays) = assay: Test A pre-/postemergence plant response
How it was run: as §1

[2] = test system: giant foxtail (Setaria faberii); assay: Test A pre-/postemergence plant response
How it was run: as §1

[3] = test system: large crabgrass (Digitaria sanguinalis); assay: Test A pre-/postemergence plant response
How it was run: as §1

[4] = test system: morningglory (Ipomoea spp.); assay: Test A pre-/postemergence plant response
How it was run: as §1

[5] = test system: pigweed (Amaranthus retroflexus); assay: Test A pre-/postemergence plant response
How it was run: as §1

[6] = test system: velvetleaf (Abutilon theophrasti); assay: Test A pre-/postemergence plant response
How it was run: as §1

[7] = test system: wheat (Triticum aestivum); assay: Test A pre-/postemergence plant response
How it was run: as §1

[8] = test system: barnyardgrass (Echinochloa crus-galli); assay: Test B flooded paddy test; settings: for Plant response rating, Flood, Barnyardgrass: 250 g ai/ha, flooded paddy test, visual rating on 0 to 100 scale (0 no effect, 100 complete control) after 13 to 15 days; for Plant response rating, Barnyardgrass: Flood (flooded paddy test), 62 g ai/ha, scale of 0 to 100 where 0 is no effect and 100 is complete control, 13 to 15 days
How it was run: (§2)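 Ratings are visual, 0–100 (100 = complete control), taken versus untreated controls 13 to 15 days after treatment in the greenhouse. Compound went straight into paddy water held 3 cm above soil, applied to 2-leaf-stage plants of four species.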

[9] = test system: ducksalad (Heteranthera limosa); assay: Test B flooded paddy test; settings: for Plant response rating, Flood, Ducksalad: 250 g ai/ha, flooded paddy test, visual rating on 0 to 100 scale (0 no effect, 100 complete control) after 13 to 15 days; for Plant response rating, Ducksalad: Flood (flooded paddy test), 62 g ai/ha, scale of 0 to 100 where 0 is no effect and 100 is complete control, 13 to 15 days
How it was run: as §2

rice (Oryza sativa) = assay: Test B flooded paddy test; settings: for Plant response rating, Flood, Rice: 250 g ai/ha, flooded paddy test, visual rating on 0 to 100 scale (0 no effect, 100 complete control) after 13 to 15 days; for Plant response rating, Rice: Flood (flooded paddy test), 62 g ai/ha, scale of 0 to 100 where 0 is no effect and 100 is complete control, 13 to 15 days
How it was run: as §2

[10] = test system: umbrella sedge (Cyperus difformis); assay: Test B flooded paddy test; settings: for Plant response rating, Flood, Sedge, Umbrella: 250 g ai/ha, flooded paddy test, visual rating on 0 to 100 scale (0 no effect, 100 complete control) after 13 to 15 days; for Plant response rating, Sedge, Umbrella: Flood (flooded paddy test), 62 g ai/ha, scale of 0 to 100 where 0 is no effect and 100 is complete control, 13 to 15 days
How it was run: as §2

[11] = Postemergence, 125 g ai/ha, 0 to 100 scale where 0 is no effect and 100 is complete control
[12] = Postemergence, 500 g ai/ha, 0 to 100 scale, 0 = no effect, 100 = complete control, approx. ten days
[13] = Preemergence, 125 g ai/ha, 0 to 100 scale, 0 = no effect, 100 = complete control
[14] = Preemergence, 500 g ai/ha, visual injury, 0 to 100 scale (0 no effect, 100 complete control), approx. ten days

CCCn1c(-c2cccc(Br)c2)ncc(C(=O)C2=C(O)CCCC2=O)c1=O [Compound 141]
Plant response rating, Barnyardgrass [1, 11]: 90 | Plant response rating, Barnyardgrass [1, 12]: 90 | Plant response rating, Barnyardgrass [1, 13]: 60 | Plant response rating, Barnyardgrass [1, 14]: 100 | Plant response rating, Corn (corn (Zea mays); [11]): 20 | Plant response rating, Corn (corn (Zea mays); [12]): 30 | Plant response rating, Corn (corn (Zea mays); [13]): 0 | Plant response rating, Corn (corn (Zea mays); [14]): 0 | Plant response rating, Foxtail, Giant [2, 11]: 80 | Plant response rating, Foxtail, Giant [2, 12]: 90 | Plant response rating, Foxtail, Giant [2, 13]: 40 | Plant response rating, Foxtail, Giant [2, 14]: 80 | Plant response rating, Crabgrass, Large [3, 11]: 80 | Plant response rating, Crabgrass, Large [3, 12]: 90 | Plant response rating, Crabgrass, Large [3, 13]: 80 | Plant response rating, Crabgrass, Large [3, 14]: 100 | Plant response rating, Morningglory [4, 11]: 70 | Plant response rating, Morningglory [4, 12]: 100 | Plant response rating, Morningglory [4, 13]: 0 | Plant response rating, Morningglory [4, 14]: 30 | Plant response rating, Pigweed [5, 11]: 90 | Plant response rating, Pigweed [5, 12]: 100 | Plant response rating, Pigweed [5, 13]: 70 | Plant response rating, Pigweed [5, 14]: 100 | Plant response rating, Velvetleaf [6, 11]: 100 | Plant response rating, Velvetleaf [6, 12]: 100 | Plant response rating, Velvetleaf [6, 13]: 70 | Plant response rating, Velvetleaf [6, 14]: 100 | Plant response rating, Wheat [7, 11]: 0 | Plant response rating, Wheat [7, 12]: 0 | Plant response rating, Wheat [7, 13]: 0 | Plant response rating, Wheat [7, 14]: 0 | Plant response rating, Flood, Barnyardgrass [8]: 50 | Plant response rating, Barnyardgrass [8]: 20 | Plant response rating, Flood, Ducksalad [9]: 85 | Plant response rating, Ducksalad [9]: 75 | Plant response rating, Flood, Rice (rice (Oryza sativa)): 35 | Plant response rating, Rice (rice (Oryza sativa)): 0 | Plant response rating, Flood, Sedge, Umbrella [10]: 85 | Plant response rating, Sedge, Umbrella [10]: 80

CCCc1ncc(C(=O)C2=C(O)CCCC2=O)c(=O)n1-c1ccccc1C [Compound 73]
Plant response rating, Barnyardgrass [1, 11]: 70 | Plant response rating, Barnyardgrass [1, 12]: 90 | Plant response rating, Barnyardgrass [1, 13]: 0 | Plant response rating, Barnyardgrass [1, 14]: 70 | Plant response rating, Corn (corn (Zea mays); [11]): 30 | Plant response rating, Corn (corn (Zea mays); [12]): 60 | Plant response rating, Corn (corn (Zea mays); [13]): 0 | Plant response rating, Corn (corn (Zea mays); [14]): 0 | Plant response rating, Foxtail, Giant [2, 11]: 80 | Plant response rating, Foxtail, Giant [2, 12]: 90 | Plant response rating, Foxtail, Giant [2, 13]: 50 | Plant response rating, Foxtail, Giant [2, 14]: 70 | Plant response rating, Crabgrass, Large [3, 11]: 90 | Plant response rating, Crabgrass, Large [3, 12]: 90 | Plant response rating, Crabgrass, Large [3, 13]: 70 | Plant response rating, Crabgrass, Large [3, 14]: 100 | Plant response rating, Morningglory [4, 11]: 100 | Plant response rating, Morningglory [4, 12]: 100 | Plant response rating, Morningglory [4, 13]: 10 | Plant response rating, Morningglory [4, 14]: 80 | Plant response rating, Pigweed [5, 11]: 100 | Plant response rating, Pigweed [5, 12]: 100 | Plant response rating, Pigweed [5, 13]: 100 | Plant response rating, Pigweed [5, 14]: 100 | Plant response rating, Velvetleaf [6, 11]: 100 | Plant response rating, Velvetleaf [6, 12]: 100 | Plant response rating, Velvetleaf [6, 13]: 80 | Plant response rating, Velvetleaf [6, 14]: 100 | Plant response rating, Wheat [7, 11]: 10 | Plant response rating, Wheat [7, 12]: 50 | Plant response rating, Wheat [7, 13]: 10 | Plant response rating, Wheat [7, 14]: 30 | Plant response rating, Flood, Barnyardgrass [8]: 0 | Plant response rating, Barnyardgrass [8]: 0 | Plant response rating, Flood, Ducksalad [9]: 0 | Plant response rating, Ducksalad [9]: 0 | Plant response rating, Flood, Rice (rice (Oryza sativa)): 0 | Plant response rating, Rice (rice (Oryza sativa)): 0 | Plant response rating, Flood, Sedge, Umbrella [10]: 0 | Plant response rating, Sedge, Umbrella [10]: 0
